Drawing on patent US11447466B2, “Substituted indole compounds useful as inhibitors of TLR7/8/9” (BRISTOL-MYERS SQUIBB COMPANY, priority 2017, dated 2022), this text covers IC50 for 13 compounds.

Type in all cases: cell-based
One experiment deals with T1, human TLR7 (Homo sapiens, UniProt Q9NYK1).
T1 construct: host or cells: HEK-Blue cells
T1 sequence (Q9NYK1 27-1049): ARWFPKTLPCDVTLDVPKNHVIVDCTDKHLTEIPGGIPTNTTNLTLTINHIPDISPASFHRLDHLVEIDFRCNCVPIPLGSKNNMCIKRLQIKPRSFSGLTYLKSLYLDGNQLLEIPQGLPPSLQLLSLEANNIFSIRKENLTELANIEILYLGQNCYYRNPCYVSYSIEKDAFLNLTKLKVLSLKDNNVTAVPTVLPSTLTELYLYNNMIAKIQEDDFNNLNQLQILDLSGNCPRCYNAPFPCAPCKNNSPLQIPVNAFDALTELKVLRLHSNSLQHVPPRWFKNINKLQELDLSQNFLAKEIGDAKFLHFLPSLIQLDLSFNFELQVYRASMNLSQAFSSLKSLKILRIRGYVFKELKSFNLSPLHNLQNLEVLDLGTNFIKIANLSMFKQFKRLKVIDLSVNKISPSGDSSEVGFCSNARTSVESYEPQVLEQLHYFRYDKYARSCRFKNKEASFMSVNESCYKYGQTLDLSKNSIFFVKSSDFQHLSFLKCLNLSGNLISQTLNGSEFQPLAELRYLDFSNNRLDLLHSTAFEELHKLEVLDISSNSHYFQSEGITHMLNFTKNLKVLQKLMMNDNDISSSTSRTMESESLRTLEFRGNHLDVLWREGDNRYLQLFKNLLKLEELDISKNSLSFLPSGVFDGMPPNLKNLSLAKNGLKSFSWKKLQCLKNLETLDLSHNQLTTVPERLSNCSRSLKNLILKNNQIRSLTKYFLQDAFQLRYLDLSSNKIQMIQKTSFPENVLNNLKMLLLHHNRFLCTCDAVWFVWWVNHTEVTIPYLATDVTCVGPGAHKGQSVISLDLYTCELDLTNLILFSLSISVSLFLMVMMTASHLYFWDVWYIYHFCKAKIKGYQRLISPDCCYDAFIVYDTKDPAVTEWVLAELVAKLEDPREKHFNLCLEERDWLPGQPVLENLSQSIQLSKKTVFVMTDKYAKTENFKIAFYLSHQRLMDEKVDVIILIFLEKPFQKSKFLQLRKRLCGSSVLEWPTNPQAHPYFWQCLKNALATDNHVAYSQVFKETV
Kind of experiment: TLR7 inhibition reporter assay (HEK-Blue SEAP reporter, gardiquimod stimulation). Particulars: HEK-Blue cells overexpressing human TLR7, SEAP reporter, gardiquimod 7.5 μM, 22 hour incubation. The procedure, abridged:
(§1)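 Screening used HEK-Blue cells overexpressing one human TLR (7, 8 or 9) and an IFN-β minimal promoter–NF-κB/AP-1 SEAP construct. Stimulation lasted 22 h at 37 °C with receptor-specific agonist: gardiquimod, R848 or ODN2006 at 7.5 μM, 15.9 μM and 5 nM.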
For orientation: Reporter assays use an easily measured gene product as a stand-in for the process of interest.

Another experiment concerns the target T2, human TLR8 (Homo sapiens, UniProt Q9NR97).
T2 construct: host or cells: HEK-Blue cells
T2 sequence (Q9NR97 27-1041): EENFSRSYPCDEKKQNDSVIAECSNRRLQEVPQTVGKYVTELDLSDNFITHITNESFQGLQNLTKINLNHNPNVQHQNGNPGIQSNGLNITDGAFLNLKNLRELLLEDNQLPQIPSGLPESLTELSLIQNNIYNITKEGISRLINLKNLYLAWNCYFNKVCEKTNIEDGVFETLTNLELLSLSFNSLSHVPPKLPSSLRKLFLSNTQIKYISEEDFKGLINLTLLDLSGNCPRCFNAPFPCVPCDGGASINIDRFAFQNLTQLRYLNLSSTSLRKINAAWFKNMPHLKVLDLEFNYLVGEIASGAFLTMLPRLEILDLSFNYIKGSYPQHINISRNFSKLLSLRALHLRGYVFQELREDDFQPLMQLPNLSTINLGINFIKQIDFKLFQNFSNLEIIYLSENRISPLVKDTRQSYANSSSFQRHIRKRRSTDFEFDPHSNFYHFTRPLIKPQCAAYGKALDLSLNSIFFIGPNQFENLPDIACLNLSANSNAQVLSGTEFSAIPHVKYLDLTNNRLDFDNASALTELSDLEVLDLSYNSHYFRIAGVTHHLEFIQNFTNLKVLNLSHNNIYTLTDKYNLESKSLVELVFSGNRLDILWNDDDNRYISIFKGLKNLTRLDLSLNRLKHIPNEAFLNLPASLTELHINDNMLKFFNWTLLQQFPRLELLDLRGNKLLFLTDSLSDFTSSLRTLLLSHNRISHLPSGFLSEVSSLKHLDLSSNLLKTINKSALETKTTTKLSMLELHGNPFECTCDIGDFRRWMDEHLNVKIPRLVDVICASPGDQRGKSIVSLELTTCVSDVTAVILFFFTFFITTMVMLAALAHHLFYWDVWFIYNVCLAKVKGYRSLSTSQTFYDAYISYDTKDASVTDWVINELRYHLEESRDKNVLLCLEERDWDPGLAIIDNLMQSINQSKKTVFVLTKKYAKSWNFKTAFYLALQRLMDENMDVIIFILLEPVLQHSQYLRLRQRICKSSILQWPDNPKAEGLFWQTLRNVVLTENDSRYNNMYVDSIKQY
Kind of experiment: TLR8 inhibition reporter assay (HEK-Blue SEAP reporter, R848 stimulation). Particulars: HEK-Blue cells overexpressing human TLR8, SEAP reporter, R848 15.9 μM, 22 hour incubation. Put shortly: as §1

The target in a further experiment is T3, human TLR9 (Homo sapiens, UniProt Q9NR96).
T3 construct: host or cells: HEK-Blue cells
T3 sequence (Q9NR96 26-1032): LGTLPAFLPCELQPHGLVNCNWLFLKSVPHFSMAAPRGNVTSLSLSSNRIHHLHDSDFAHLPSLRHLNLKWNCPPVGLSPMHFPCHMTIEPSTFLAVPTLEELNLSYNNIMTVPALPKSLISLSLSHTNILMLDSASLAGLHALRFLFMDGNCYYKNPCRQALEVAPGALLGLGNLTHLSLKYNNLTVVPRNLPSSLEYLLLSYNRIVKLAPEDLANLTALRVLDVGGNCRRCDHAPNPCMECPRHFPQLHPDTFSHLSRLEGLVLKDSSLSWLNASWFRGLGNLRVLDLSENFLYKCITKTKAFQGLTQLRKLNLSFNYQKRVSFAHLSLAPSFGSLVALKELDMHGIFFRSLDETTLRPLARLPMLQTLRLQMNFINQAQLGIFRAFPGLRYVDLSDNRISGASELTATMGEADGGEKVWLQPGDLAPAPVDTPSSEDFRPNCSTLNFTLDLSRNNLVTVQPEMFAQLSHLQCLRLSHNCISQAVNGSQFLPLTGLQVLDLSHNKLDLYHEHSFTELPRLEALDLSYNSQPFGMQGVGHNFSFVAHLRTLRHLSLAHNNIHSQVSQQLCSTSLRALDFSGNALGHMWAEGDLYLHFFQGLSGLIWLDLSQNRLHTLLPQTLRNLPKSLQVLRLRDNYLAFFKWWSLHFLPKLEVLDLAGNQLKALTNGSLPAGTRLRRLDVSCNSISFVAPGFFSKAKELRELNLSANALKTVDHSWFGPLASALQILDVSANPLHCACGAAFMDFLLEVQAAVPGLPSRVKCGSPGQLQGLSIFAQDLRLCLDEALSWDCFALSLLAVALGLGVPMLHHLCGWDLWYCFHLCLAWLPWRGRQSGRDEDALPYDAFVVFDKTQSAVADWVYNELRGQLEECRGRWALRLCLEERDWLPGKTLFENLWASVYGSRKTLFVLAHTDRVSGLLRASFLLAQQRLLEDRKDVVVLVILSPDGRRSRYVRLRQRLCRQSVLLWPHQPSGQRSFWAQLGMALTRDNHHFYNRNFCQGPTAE
In words: TLR9 inhibition reporter assay (HEK-Blue SEAP reporter, ODN2006 stimulation). Particulars: HEK-Blue cells overexpressing human TLR9, SEAP reporter, ODN2006 5 nM, 22 hour incubation. Put shortly: as §1

As for `Cc1c(-c2[nH]c3ccc(C4CCN(CC#N)CC4)cc3c2C(C)C)cn(C)c(=O)c1Cl` [Example 96, 2-(4-(2-(5-chloro-1,4-dimethyl-6-oxo-1,6-dihydropyridin-3-yl)-3-isopropyl-1H-indol-5-yl)piperidin-1-yl)acetonitrile], the IC50 at human TLR7 is 2 nM; on human TLR8, 14.3 nM; on human TLR9, 2860 nM.

For the compound `Cc1cc(-c2[nH]c3ccc(C4CCN(C(C)c5cnn(C)c5)CC4)cc3c2C(C)C)cn(C)c1=O` (stereo not drawn) [Example 269, 5-(3-isopropyl-5-(1-(1-(1-methyl-1H-pyrazol-4-yl)ethyl)piperidin-4-yl)-1H-indol-2-yl)-1,3-dimethylpyridin-2(1H)-one], the half-inhibitory concentration (IC50) against human TLR7 stood at 35.5 nM; against human TLR8, 4.6 nM; on human TLR9, 5900 nM.

For `CCn1cc(-c2[nH]c3ccc(C4CCNCC4)cc3c2C(C)C)cc(C)c1=O` [Example 15, 1-ethyl-5-(3-isopropyl-5-(piperidin-4-yl)-1H-indol-2-yl)-3-methylpyridin-2(1H)-one], the IC50 is 1.9 nM at human TLR7, 3.3 nM against human TLR8 and 179 nM against human TLR9.

Consider `CNCCN1CCC(c2ccc3[nH]c(-c4cc(C)c(=O)n(C)c4)c(C(C)C)c3c2)CC1` [Example 176, 5-(3-isopropyl-5-(1-(2-(methylamino)ethyl)piperidin-4-yl)-1H-indol-2-yl)-1,3-dimethylpyridin-2(1H)-one], for which the concentration for half-maximal inhibition (IC50) against human TLR7 stood at 1.3 nM; against human TLR8 it was 1.3 nM; on human TLR9, 177 nM.

For `Cc1cc(-c2[nH]c3ccc(C4CCN(CC(C)C)CC4)cc3c2C(C)C)cn(Cc2ccccc2)c1=O` [Example 113, 1-benzyl-5-(5-(1-isobutylpiperidin-4-yl)-3-isopropyl-1H-indol-2-yl)-3-methylpyridin-2(1H)-one], the IC50 at human TLR7 came to 26.4 nM; against human TLR8, 70.7 nM; on human TLR9 it was 2190 nM.

Regarding `Cc1c(-c2[nH]c3ccc(C4CCN(C(=O)CN(C)C)CC4)cc3c2C(C)C)cc(C#N)c(=O)n1C` [Example 273, 5-(5-(1-(dimethylglycyl)piperidin-4-yl)-3-isopropyl-1H-indol-2-yl)-1,6-dimethyl-2-oxo-1,2-dihydropyridine-3-carbonitrile], the 50% inhibitory concentration (IC50) against human TLR7 came out at 90.2 nM; against human TLR8, 16 nM; on human TLR9, 2080 nM.

As for `Cc1cc(-c2[nH]c3ccc(C4CCN(C5CCOCC5)CC4)cc3c2C(C)C)cn(Cc2ccccc2)c1=O` [Example 263, 1-benzyl-5-(3-isopropyl-5-(1-(tetrahydro-2H-pyran-4-yl)piperidin-4-yl)-1H-indol-2-yl)-3-methylpyridin-2(1H)-one], the IC50 against human TLR7 was 10.8 nM; on human TLR8, 24.1 nM; on human TLR9 it was 1560 nM.

`Cc1c(-c2[nH]c3ccc(C4CCNCC4)cc3c2C(C)C)cn(C)c(=O)c1Cl` [Example 31, 3-chloro-5-(3-isopropyl-5-(piperidin-4-yl)-1H-indol-2-yl)-1,4-dimethylpyridin-2(1H)-one]: the results for the half-maximal inhibitory concentration (IC50) against human TLR7, against human TLR8 and on human TLR9 were 1 nM, 7 nM and 1120 nM, respectively.

For the compound `Cc1cc(-c2[nH]c3ccc(C4CCN(C(C)(C)C(N)=O)CC4)cc3c2C(C)C)cn(C)c1=O` [Example 151, 2-(4-(2-(1,5-dimethyl-6-oxo-1,6-dihydropyridin-3-yl)-3-isopropyl-1H-indol-5-yl)piperidin-1-yl)-2-methylpropanamide], the figures for the IC50 on human TLR7, at human TLR8 and on human TLR9 were 1.2 nM, 13.7 nM and 11000 nM, respectively.

`Cc1cc(-c2[nH]c3ccc(C4CCN(CC5CCOC5)CC4)cc3c2C(C)C)cn(C)c1=O` (stereo not drawn) [Example 225, 5-(3-isopropyl-5-(1-((tetrahydrofuran-3-yl)methyl)piperidin-4-yl)-1H-indol-2-yl)-1,3-dimethylpyridin-2(1H)-one]: the IC50 against human TLR7 worked out at 4.6 nM; against human TLR8, 3.6 nM; against human TLR9, 6990 nM.

For the compound `Cc1nc(-c2[nH]c3ccc(C4CCN(C5CCOCC5)CC4)cc3c2C(C)C)cn(C)c1=O` [Example 185, 5-(3-isopropyl-5-(1-(tetrahydro-2H-pyran-4-yl)piperidin-4-yl)-1H-indol-2-yl)-1,3-dimethylpyrazin-2(1H)-one], the half-maximal inhibitory concentration (IC50) on human TLR7 stood at 61.3 nM; at human TLR8, 19 nM; at human TLR9, 4320 nM.

`COCCCN1CCC(c2ccc3[nH]c(-c4cn(C)c(=O)c(Cl)c4C)c(C(C)C)c3c2)CC1` [Example 99, 3-chloro-5-(3-isopropyl-5-(1-(3-methoxypropyl)piperidin-4-yl)-1H-indol-2-yl)-1,4-dimethylpyridin-2(1H)-one]: the 50% inhibitory concentration (IC50) came out at 7.1 nM on human TLR7, 10.3 nM against human TLR8 and 4980 nM at human TLR9.

With `Cc1cc(-c2[nH]c3ccc(C4CCN(C(=O)C[C@H](C)O)CC4)cc3c2C(C)C)cn(C)c1=O` [Example 305, (S)-5-(5-(1-(3-hydroxybutanoyl)piperidin-4-yl)-3-isopropyl-1H-indol-2-yl)-1,3-dimethylpyridin-2(1H)-one], the half-inhibitory concentration (IC50) is 11 nM on human TLR7, 97.5 nM at human TLR8 and at least 50000 nM on human TLR9.

Broadly, the IC50 is the midpoint of a concentration-inhibition curve. Low values mean greater potency in that assay, high ones weaker potency in that assay.
